The values that follow come from patent US20070270421A1, “Novel pyridine Derivative and Pyrimidine Derivative (1)” (priority 2004, published 2007).

In experiment [1] the test system is Human gastric cancer cells (MKN-45). Kind of experiment: Inhibitory activity against the proliferation of human gastric cancer cells (MKN-45). The experiment is classed as cell-based. The conditions noted are these: 72 h, MKN-45, 1% FBS RPMI1640, 3 days, Cell Counting Kit-8, read-out: IC50 (concentration necessary to inhibit the cell proliferation by 50%). The method, then: Human gastric cancer cells (MKN-45) were suspended in a 1% FBS-containing RPMI1640 medium (purchased from Sigma). The cell suspension (1×10^4 cells/ml) was added in a 96-well plate for cell culture (purchased from NUNC, Production No. 167008) at 0.1 ml/well, and then cultured in a 5% CO2 incubator (37° C.) overnight. After the culture, each well was supplied with 0.1 ml of a test substance diluted with a 1% FBS-containing RPMI1640 medium, followed by culturing in a 5% CO2 incubator (37° C.) for 3 days. After the culture, each well was supplied with 10 μl of Cell Counting Kit-8 (purchased from DOJINDO, Production No. 343-07623), followed by incubation in a 5% CO2 incubator (37° C.) for about 1.5 hrs. After the incubation, using the Plate Reader MTP-500 (Corona Electric), the absorbance of each well was determined at a measurement wavelength of 450 nm and a reference wavelength of 660 nm. The ratio (%) of absorbance of each well supplied with a test substance to absorbance of the well supplied with no test substance was calculated, and the ratio was used to calculate the concentration (IC50) of the test substance necessary to inhibit the cell proliferation by 50%.
On the technique in general: Tetrazolium dyes change colour on reduction, which living cells bring about.

For a further experiment, the target named is T1, HGFR autophosphorylation (Homo sapiens, UniProt P08581).
T1 construct: endogenous in cells; host or cells: MKN-45 human gastric cancer cells
T1 sequence (P08581 25-1390): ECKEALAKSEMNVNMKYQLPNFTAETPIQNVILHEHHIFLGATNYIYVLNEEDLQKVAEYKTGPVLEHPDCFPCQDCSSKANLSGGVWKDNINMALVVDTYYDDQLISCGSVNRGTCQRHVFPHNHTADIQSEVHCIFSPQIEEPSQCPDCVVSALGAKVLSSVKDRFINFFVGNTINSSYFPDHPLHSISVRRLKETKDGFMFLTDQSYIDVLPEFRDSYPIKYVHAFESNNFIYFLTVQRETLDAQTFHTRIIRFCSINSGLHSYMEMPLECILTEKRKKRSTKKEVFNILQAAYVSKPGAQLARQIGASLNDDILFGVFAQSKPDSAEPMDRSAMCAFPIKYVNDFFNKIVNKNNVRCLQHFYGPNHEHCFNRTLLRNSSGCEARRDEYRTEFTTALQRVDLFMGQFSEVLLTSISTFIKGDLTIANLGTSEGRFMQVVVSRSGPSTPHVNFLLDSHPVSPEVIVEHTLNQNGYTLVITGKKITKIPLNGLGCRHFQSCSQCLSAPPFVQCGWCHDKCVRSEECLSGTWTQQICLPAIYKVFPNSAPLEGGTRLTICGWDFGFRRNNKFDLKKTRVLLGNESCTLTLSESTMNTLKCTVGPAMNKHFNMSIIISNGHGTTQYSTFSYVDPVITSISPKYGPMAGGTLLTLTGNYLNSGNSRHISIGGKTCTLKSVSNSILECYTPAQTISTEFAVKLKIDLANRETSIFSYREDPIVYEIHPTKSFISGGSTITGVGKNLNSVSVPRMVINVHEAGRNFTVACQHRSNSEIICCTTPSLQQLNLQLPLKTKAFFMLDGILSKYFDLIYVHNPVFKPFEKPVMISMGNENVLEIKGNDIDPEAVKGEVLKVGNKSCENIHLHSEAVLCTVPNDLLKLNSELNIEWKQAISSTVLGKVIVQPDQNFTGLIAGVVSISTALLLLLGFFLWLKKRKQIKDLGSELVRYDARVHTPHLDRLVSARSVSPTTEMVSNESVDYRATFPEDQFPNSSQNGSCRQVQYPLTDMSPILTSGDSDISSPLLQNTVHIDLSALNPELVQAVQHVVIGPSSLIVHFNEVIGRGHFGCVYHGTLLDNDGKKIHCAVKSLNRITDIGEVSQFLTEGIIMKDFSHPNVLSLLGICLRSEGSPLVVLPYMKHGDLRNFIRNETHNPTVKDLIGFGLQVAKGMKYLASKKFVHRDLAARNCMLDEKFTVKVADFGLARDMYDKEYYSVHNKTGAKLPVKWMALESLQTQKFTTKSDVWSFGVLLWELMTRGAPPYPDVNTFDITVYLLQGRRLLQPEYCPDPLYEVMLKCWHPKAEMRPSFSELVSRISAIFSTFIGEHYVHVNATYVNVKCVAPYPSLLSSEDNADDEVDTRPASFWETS
Kind of experiment: Inhibitory activity against the HGFR autophosphorylation using ELISA. The class given is cell-based. The conditions noted are these: MKN-45 cells, 1 hr treatment, read-out: IC50 (concentration necessary to inhibit HGFR autophosphorylation activity by 50%). The method, then:
Human gastric cancer cells (MKN-45) were suspended in a 1% FBS-containing RPMI1640 medium (purchased from Sigma). The cell suspension (1×10^5 cells/ml) was put in a 96-well plate for cell culture (purchased from NUNC, Production No. 167008) at 0.1 ml/well, and then cultured in a 5% CO2 incubator (37° C.) overnight. After the culture, from each well was removed the supernatant solution, followed by adding 0.05 ml of a 1% FBS-containing RPMI1640 medium. Then, the well was supplied with 0.05 ml of the test substance dissolved in dimethyl sulfoxide (diluted with a 1% FBS-containing RPMI1640 medium), followed by culturing in a 5% CO2 incubator (37° C.) for 1 hr. From each well was removed the supernatant, and each well was washed with 150 μl of PBS, followed by adding 100 μl of a lysis buffer (50 mM Hepes (pH 7.4), 150 mM NaCl, 10% (v/v) glycerol, 1% Triton X-100, 1.5 mM MgCl2, 1 mM EDTA (pH 8.0), 100 mM NaF, 1 mM PMSF, 10 μg/ml Aprotinin, 50 μg/ml Leupeptin, 1 μg/ml Pepstatin A and 1 mM Na3VO4). The plate was shaken at 4° C. for 1 hr to prepare the cell extract.
To a 96-well plate for ELISA (purchased from COSTAR, Production No. 3369) was added 50 μl of 60 mM bicarbonate buffer (pH 9.6) containing 50 μg/ml of an anti-phosphotyrosine antibody (PY20, purchased from Transduction Laboratory, Production No. P-11120). The plate was incubated at 4° C. overnight.
Each well of the plate prepared in 2. was washed three times with 200 μl of PBS, and supplied with 150 μl of 3% BSA/PBS, followed by incubating at room temperature for 2 hrs. Each well was washed three times with 200 μl of PBS, and supplied with 50 μl of the above cell extract, followed by incubating at 4° C. overnight. After the incubation, each well was washed three times with 250 μl of a washing solution (0.1% BSA, 20 mM Tris-HCl (pH 7.6), 137 mM NaCl, and 0.05% Tween-20), and supplied with 70 μl of anti-HGFR antibody (h-Met(C-12), purchased from Santa Cruz, Production No. sc-10) 2,000-fold diluted with a reaction solution (1% BSA, 20 mM Tris-HCl (pH 7.6), 137 mM NaCl and 0.05% Tween-20), followed by incubating at room temperature for 1 hr. The well was washed three times with 250 μl of the washing solution, and supplied with 70 μl of peroxidase-labelled anti-rabbit IgG antibody (purchased from Cell Signaling, Production No. 7074) 2,000-fold diluted with the reaction solution, followed by incubating at room temperature for 1 hr. Each well was washed three times with 250 μl of the washing solution, and supplied with 70 μl of TMB Membrane Peroxidase Substrate (purchased from Funakoshi, Production No. 50-5077-03), followed by incubating at room temperature for 10 min. Each well was supplied with 70 μl of 1 M phosphoric acid, and using the Plate Reader MTP-500 (Corona Electric), the absorbance of the well was instantly determined at a measurement wavelength of 450 nm. While defining the absorbance of a well supplied with the cell extract having no test substance as 100% HGFR autophosphorylation activity, and the absorbance of a well supplied with 50 μl of the lysis buffer as 0% HGFR autophosphorylation activity, the HGFR autophosphorylation activity (%) was calculated for each well. The concentration of the test substance was changed by several levels to calculate HGFR autophosphorylation activities (%) in respective cases, and to calculate the concentration (IC50) of the test substance necessary to inhibit HGFR autophosphorylation activity by 50%.
In general terms: In an ELISA, binding on a coated surface is turned into a signal by an enzyme label.

pIC50: −log10 of the molar value.

For the compound `O=C(CC(=O)Nc1ccc(Oc2ccnc(NC(=O)N3CCCC3)c2)c(F)c1)Nc1ccc(F)cc1` [Example 56, N-(4-Fluorophenyl)-N′-(3-fluoro-4-{2-[(pyrrolidine-1-carbonyl)amino]pyridin-4-yloxy}phenyl)malonamide], the pIC50 is 6.85 in experiment [1] and 6.89 at HGFR autophosphorylation.
In the same order, the values of `CN(C)C(=O)Nc1cc(Oc2ccc(NC(=O)NC(=O)Cc3ccccc3)cc2F)ccn1` [Example 44, 2-[(Dimethylamino)carbonylamino]-4-{2-fluoro-4-[3-(2-phenylacetyl)ureido]phenoxy}pyridine] are 7.19 and 6.46.
On the same counts, the results for `O=C(Cc1ccc(F)cc1)NC(=S)Nc1ccc(Oc2cc(NC(=O)N3CCCC3)ncn2)c(F)c1` [Example 3, Pyrrolidine-1-carboxylic acid [6-(2-fluoro-4-{3-[2-(4-fluorophenyl)acetyl]thioureido}phenoxy)pyrimidin-4-yl]amide] are 7.40 and 7.70.
In the same order, the values of `CCN(CC)CCCN(C)C(=O)Nc1cc(Oc2ccc(NC(=S)NC(=O)Cc3ccc(F)cc3)cc2F)ccn1` [Example 22, 1-(3-Diethylaminopropyl)-3-[4-(2-fluoro-4-{3-[2-(4-fluorophenyl)acetyl]thioureido}phenoxy)pyridin-2-yl]-1-methylurea] are 7.48 and above 7.52.
Turning to `O=C(Cc1ccccc1)NC(=O)Nc1ccc(Oc2ccnc(NC(=O)N3CCCC3)c2)c(F)c1` [Example 43, 4-{2-Fluoro-4-[3-(2-phenylacetyl)ureido]phenoxy}-2-[(pyrrolidin-1-yl)carbonylamino]pyridine], the pIC50 in experiment [1] is 7.46; at HGFR autophosphorylation, 7.23.
On the same counts, the results for `CN1CCCN(C(=O)Nc2cc(Oc3ccc(NC(=O)CC(=O)Nc4ccc(F)cc4)c(F)c3)ccn2)CC1` [Example 92, N-(2-Fluoro-4-{2-[(4-methyl-[1,4]diazepane-1-carbonyl)amino]pyridin-4-yloxy}phenyl)-N′-(4-fluorophenyl)malonamide] are 6.24 and 6.27.
On to `CN1CCN(C(=O)Nc2cc(Oc3ccc(NC(=O)NC(=O)Cc4ccccc4)cc3F)ccn2)CC1` [Example 50, 4-Methylpiperazine-1-carboxylic acid {4-[2-fluoro-4-(3-phenylacetylureido)phenoxy]pyridin-2-yl}amide], for which the pIC50 in experiment [1] is 6.80; on HGFR autophosphorylation, 6.55.
Turning to `O=C(Cc1ccccc1)NC(=S)Nc1ccc(Oc2ccnc(NC(=O)N3CCC(O)CC3)c2)c(F)c1` [Example 15, 4-{2-Fluoro-4-[3-(2-phenylacetyl)thioureido]phenoxy}-2-[(4-hydroxypiperidin-1-yl)carbonylamino]pyridine], the pIC50 was 7.32 in experiment [1] and 7.89 at HGFR autophosphorylation.
In the same order, the values of `CN1CCC(N(C)C(=O)Nc2cc(Oc3ccc(NC(=S)NC(=O)Cc4ccccc4)cc3F)ccn2)CC1` [Example 28, 3-{4-[2-Fluoro-4-(3-phenylacetylthioureido)phenoxy]pyridin-2-yl}-1-methyl-1-(1-methylpiperidin-4-yl)urea] are 8.24 and 7.72.
In the same order, the values of `O=C(CC(=O)Nc1ccc(Oc2ccnc(NC(=O)N3CCC(N4CCCC4)CC3)c2)cc1F)Nc1ccc(F)cc1` [Example 82, N-(4-Fluorophenyl)-N′-[2-fluoro-4-(2-{[4-(pyrrolidin-1-yl)piperidine-1-carbonyl]amino}pyridin-4-yloxy)phenyl]malonamide] are 6.92 and 7.06.
On the same counts, the results for `Cc1cc(Oc2ccnc(NC(=O)N3CCC(N4CCCC4)CC3)c2)ccc1NC(=O)CC(=O)Nc1ccc(F)cc1` [Example 85, N-(4-Fluorophenyl)-N′-[2-methyl-4-(2-{[(4-pyrrolidin-1-yl)piperidine-1-carbonyl]amino}pyridin-4-yloxy)phenyl]malonamide] are 6.20 and 6.23.
As to `O=C(Cc1ccc(F)cc1)NC(=S)Nc1ccc(Oc2ccnc(NC(=O)N3CCCC3)c2)c(F)c1` [Example 13, 4-(2-Fluoro-4-{3-[2-(4-fluorophenyl)acetyl]thioureido}phenoxy)-2-[(pyrrolidin-1-yl)carbonylamino]pyridine], the pIC50 in experiment [1] was 7.64; on HGFR autophosphorylation, 8.17.
On the same counts, the results for `O=C(Cc1ccccc1)NC(=S)Nc1ccc(Oc2ccnc(NC(=O)N3CCOCC3)c2)c(Cl)c1` [Example 11, 4-{2-Chloro-4-[3-(2-phenylacetyl)thioureido]phenoxy}-2-[(morpholin-4-yl)carbonylamino]pyridine] are 6.74 and 7.37.
In the same order, the values of `O=C(Cc1ccccc1)NC(=O)Nc1ccc(Oc2ccnc(NC(=O)N3CCOCC3)c2)c(F)c1` [Example 48, Morpholine-4-carboxylic acid {4-[2-fluoro-4-(3-phenylacetylureido)phenoxy]pyridin-2-yl}amide] are 7.24 and 6.59.
Take `CN1CCC(N(C)C(=O)Nc2cc(Oc3ccc(NC(=O)CC(=O)Nc4ccc(F)cc4)cc3F)ccn2)CC1` [Example 89, N-(3-Fluoro-4-{2-[3-methyl-3-(1-methylpiperidin-4-yl)ureido]pyridin-4-yloxy}phenyl)-N′-(4-fluorophenyl)malonamide]: the pIC50 in experiment [1] was 7.07; at HGFR autophosphorylation it was 7.31.
On the same counts, the results for `O=C(CC(=O)Nc1ccc(Oc2ccnc(NC(=O)C3CC3)c2)cc1F)Nc1ccc(F)cc1` [Example 77, N-(4-Fluorophenyl)-N′-{4-[2-(cyclopropanecarbonylamino)pyridin-4-yloxy]-2-fluorophenyl}malonamide] are 6.96 and 6.96.
Take `CN1CCC(N(C)C(=O)Nc2cc(Oc3ccc(NC(=O)NC(=O)Cc4ccccc4)cc3F)ccn2)CC1` [Example 52, 3-{4-[2-Fluoro-4-(3-phenylacetylureido)phenoxy]pyridin-2-yl]-1-methyl-1-(1-methylpiperidin-4-yl)urea]: the pIC50 is 7.20 in experiment [1] and 6.47 on HGFR autophosphorylation.
In the case of `Cc1cc(NC(=S)NC(=O)Cc2ccc(F)cc2)ccc1Oc1ccnc(NC(=O)N2CCOCC2)c1` [Example 24, Morpholine-4-carboxylic acid (4-{2-methyl-4-[3-(4-fluorophenyl)acetylthioureido]phenoxy}pyridin-2-yl)amide], the pIC50 is 6.74 in experiment [1] and 7.16 at HGFR autophosphorylation.
